# Assay results published in PubChem BioAssay AID1963980 (Molecular Pharmacology Branch, DTP, NCI, 2024).
# Test system: 475296-252-R-J1-PDC spheroid viability
# Assay: Anticancer human tumor 475296-252-R-J1-PDC patient-derived rectal carcinoma cell line growth inhibition [PI3K]
# Conditions: spheroids with HUVEC and MSC; for IC50: curve of first compound; for viability, T/C: stronger effect = lower value
# Procedure, shortened: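 Tumor cells were combined with HUVEC and MSCs into spheroids, then dosed with PI3K-inhibitor combinations over half-log ranges capped near clinical Cmax or 10 microM.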
# [1] = second compound 0.0316 µM, first compound 0.00316 µM
# [2] = second compound 0.0316 µM, first compound 0.01 µM
# [3] = second compound 0.0316 µM, first compound 0.0316 µM
# [4] = second compound 0.0316 µM, first compound 0.1 µM
# [5] = second compound 0.1 µM, first compound 0.00316 µM
# [6] = second compound 0.1 µM, first compound 0.01 µM
# [7] = second compound 0.1 µM, first compound 0.0316 µM
# [8] = second compound 0.1 µM, first compound 0.1 µM
# [9] = second compound 0.316 µM, first compound 0.00316 µM
# [10] = second compound 0.316 µM, first compound 0.01 µM
# [11] = second compound 0.316 µM, first compound 0.0316 µM
# [12] = second compound 0.316 µM, first compound 0.1 µM
# [13] = second compound 1 µM, first compound 0.00316 µM
# [14] = second compound 1 µM, first compound 0.01 µM
# [15] = second compound 1 µM, first compound 0.0316 µM
# [16] = second compound 1 µM, first compound 0.1 µM
# 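Also: spheroids exposed to agents for seven days before readout.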
structure (smiles),measurement,setting,value
CCN1CCN(Cc2ccc(Nc3ncc(F)c(-c4cc(F)c5nc(C)n(C(C)C)c5c4)n3)nc2)CC1 + COc1c(OCCCN2CCOCC2)ccc2c3n(c(=NC(=O)c4cnc(N)nc4)nc12)CCN3,IC50,second compound 0.00316 µM,> 1000 nM
same,IC50,second compound 0.01 µM,> 1000 nM
same,IC50,second compound 0.0316 µM,> 1000 nM
same,IC50,second compound 0.1 µM,> 1000 nM
same,IC50,second compound 0.316 µM,> 1000 nM
same,IC50,second compound 1 µM,> 1000 nM
same,"viability, T/C","second compound 0.00316 µM, first compound 0.00316 µM",99.3%
same,"viability, T/C","second compound 0.00316 µM, first compound 0.01 µM",102%
same,"viability, T/C","second compound 0.00316 µM, first compound 0.0316 µM",97.5%
same,"viability, T/C","second compound 0.00316 µM, first compound 0.1 µM",104%
same,"viability, T/C","second compound 0.00316 µM, first compound 0.316 µM",100%
same,"viability, T/C","second compound 0.00316 µM, first compound 1 µM",90.6%
same,"viability, T/C","second compound 0.01 µM, first compound 0.00316 µM",95.6%
same,"viability, T/C","second compound 0.01 µM, first compound 0.01 µM",95%
same,"viability, T/C","second compound 0.01 µM, first compound 0.0316 µM",93.1%
same,"viability, T/C","second compound 0.01 µM, first compound 0.1 µM",95.2%
same,"viability, T/C","second compound 0.01 µM, first compound 0.316 µM",104%
same,"viability, T/C","second compound 0.01 µM, first compound 1 µM",76.4%
same,"viability, T/C",[1],83.8%
same,"viability, T/C",[2],92.5%
same,"viability, T/C",[3],99.2%
same,"viability, T/C",[4],95.1%
same,"viability, T/C","second compound 0.0316 µM, first compound 0.316 µM",86.9%
same,"viability, T/C","second compound 0.0316 µM, first compound 1 µM",64.4%
same,"viability, T/C",[5],86.3%
same,"viability, T/C",[6],94.4%
same,"viability, T/C",[7],84.8%
same,"viability, T/C",[8],87.2%
same,"viability, T/C","second compound 0.1 µM, first compound 0.316 µM",85.9%
same,"viability, T/C","second compound 0.1 µM, first compound 1 µM",63.8%
same,"viability, T/C",[9],74.3%
same,"viability, T/C",[10],78.4%
same,"viability, T/C",[11],72.5%
same,"viability, T/C",[12],65.3%
same,"viability, T/C","second compound 0.316 µM, first compound 0.316 µM",63%
same,"viability, T/C","second compound 0.316 µM, first compound 1 µM",50%
same,"viability, T/C",[13],62.8%
same,"viability, T/C",[14],58.2%
same,"viability, T/C",[15],63.6%
same,"viability, T/C",[16],55.8%
same,"viability, T/C","second compound 1 µM, first compound 0.316 µM",56%
same,"viability, T/C","second compound 1 µM, first compound 1 µM",55.2%
Cn1ncnc1[C@H]1c2n[nH]c(=O)c3cc(F)cc(c23)N[C@@H]1c1ccc(F)cc1 + Cc1nc(NC(=O)N2CCCC2C(N)=O)sc1-c1ccnc(C(C)(C)C(F)(F)F)c1,IC50,second compound 0.0316 µM,> 100 nM
same,IC50,second compound 0.1 µM,> 100 nM
same,IC50,second compound 0.316 µM,> 100 nM
same,IC50,second compound 1 µM,> 100 nM
same,IC50,second compound 3.16 µM,> 100 nM
same,IC50,second compound 10 µM,> 100 nM
same,"viability, T/C","second compound 0.0316 µM, first compound 0.000316 µM",104%
same,"viability, T/C","second compound 0.0316 µM, first compound 0.001 µM",88.4%
same,"viability, T/C",[1],106%
same,"viability, T/C",[2],87.1%
same,"viability, T/C",[3],98.8%
same,"viability, T/C",[4],101%
same,"viability, T/C","second compound 0.1 µM, first compound 0.000316 µM",92%
same,"viability, T/C","second compound 0.1 µM, first compound 0.001 µM",87.1%
same,"viability, T/C",[5],94.7%
same,"viability, T/C",[6],101%
same,"viability, T/C",[7],110%
same,"viability, T/C",[8],103%
same,"viability, T/C","second compound 0.316 µM, first compound 0.000316 µM",89.7%
same,"viability, T/C","second compound 0.316 µM, first compound 0.001 µM",92.4%
same,"viability, T/C",[9],88.9%
same,"viability, T/C",[10],99.6%
same,"viability, T/C",[11],105%
same,"viability, T/C",[12],90.8%
same,"viability, T/C","second compound 1 µM, first compound 0.000316 µM",91.3%
same,"viability, T/C","second compound 1 µM, first compound 0.001 µM",99.5%
same,"viability, T/C",[13],101%
same,"viability, T/C",[14],91.7%
same,"viability, T/C",[15],92.6%
same,"viability, T/C",[16],104%
same,"viability, T/C","second compound 3.16 µM, first compound 0.000316 µM",85.8%
same,"viability, T/C","second compound 3.16 µM, first compound 0.001 µM",90%
same,"viability, T/C","second compound 3.16 µM, first compound 0.00316 µM",91.5%
same,"viability, T/C","second compound 3.16 µM, first compound 0.01 µM",87.7%
same,"viability, T/C","second compound 3.16 µM, first compound 0.0316 µM",87.7%
same,"viability, T/C","second compound 3.16 µM, first compound 0.1 µM",88.6%
same,"viability, T/C","second compound 10 µM, first compound 0.000316 µM",91.7%
same,"viability, T/C","second compound 10 µM, first compound 0.001 µM",92.1%
same,"viability, T/C","second compound 10 µM, first compound 0.00316 µM",84.7%
same,"viability, T/C","second compound 10 µM, first compound 0.01 µM",83.3%
same,"viability, T/C","second compound 10 µM, first compound 0.0316 µM",91.3%
same,"viability, T/C","second compound 10 µM, first compound 0.1 µM",84.6%
